Results as given in BindingDB's records for doi:10.1016/j.ejmech.2009.11.010 (Chinese Academy of Sciences, 2010).

Target: T1, Cathepsin K (Homo sapiens, UniProt P43235)
T1 sequence (P43235 whole entry): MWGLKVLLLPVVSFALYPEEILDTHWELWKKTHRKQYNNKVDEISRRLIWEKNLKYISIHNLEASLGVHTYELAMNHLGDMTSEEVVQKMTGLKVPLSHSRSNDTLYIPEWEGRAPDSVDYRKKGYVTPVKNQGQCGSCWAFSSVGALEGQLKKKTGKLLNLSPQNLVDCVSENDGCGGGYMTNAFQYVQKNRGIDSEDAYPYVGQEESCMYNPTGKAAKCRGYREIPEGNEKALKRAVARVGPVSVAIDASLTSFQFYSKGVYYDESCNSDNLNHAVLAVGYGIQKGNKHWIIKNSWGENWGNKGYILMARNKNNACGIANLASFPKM
Test: Inhibition of human cathepsin K

Row | SMILES | IC50
1 | CCCC[C@H](NC(=O)O[C@H](Cc1nnc(-c2ccc(C(F)(F)F)cc2)o1)C(C)(C)C)C(=O)C(=O)NN1CCOC1=O [(1R)-2,2-DIMETHYL-1-({5-[4-(TRIFLUOROMETHYL)PHENYL]-1,3,4-OXADIAZOL-2-YL}METHYL)PROPYL (1S)-1-{OXO[(2-OXO-1,3-OXAZOLIDIN-3-YL)AMINO]ACETYL}PENTYLCARBAMATE] | 0.129 nM
2 | CCCC[C@H](NC(=O)O[C@H](Cc1nnc(-c2ccc(F)cc2)o1)C(C)(C)C)C(=O)C(=O)NCc1cccnc1 [(R)-1-(5-(4-fluorophenyl)-1,3,4-oxadiazol-2-yl)-3,3-dimethylbutan-2-yl(S)-1,2-dioxo-1-(pyridin-3-ylmethylamino)heptan-3-ylcarbamate] | 2.82 nM
3 | CCCC[C@H](NC(=O)O[C@H](Cc1nnc(-c2ccccc2)o1)C(C)(C)C)C(=O)C(=O)N[C@H](C)c1ccccc1 [(R)-3,3-dimethyl-1-(5-phenyl-1,3,4-oxadiazol-2-yl)butan-2-yl(S)-1,2-dioxo-1-((R)-1-phenylethylamino)heptan-3-ylcarbamate] | 0.24 nM
4 | CCCC[C@H](NC(=O)O[C@H](CN1CCN(c2ccc(C(F)(F)F)cc2)C1=O)C(C)(C)C)C(=O)C(=O)Nc1ccn[nH]1 [(S)-3,3-dimethyl-1-(2-oxo-3-(4-(trifluoromethyl)phenyl)imidazolidin-1-yl)butan-2-yl(S)-1-(1H-pyrazol-5-ylamino)-1,2-dioxoheptan-3-ylcarbamate] | 0.339 nM
5 | CCCC[C@H](NC(=O)O[C@H](Cc1nnc(-c2ccc(F)cc2)o1)C(C)(C)C)C(=O)C(=O)N[C@H](C)c1ccccc1 [[(S)-1-(1-Phenyl-ethylaminooxalyl)-pentyl]-carbamic acid (R)-1-[5-(4-fluoro-phenyl)-[1,3,4]oxadiazol-2-ylmethyl]-2,2-dimethyl-propyl ester] | 0.372 nM
6 | CCCC[C@H](NC(=O)O[C@H](Cc1nnc(-c2ccc(C(F)(F)F)cc2)o1)C(C)(C)C)C(=O)C(=O)N[C@H](C)c1ccccc1 [[(S)-1-(1-Phenyl-ethylaminooxalyl)-pentyl]-carbamic acid (R)-2,2-dimethyl-1-[5-(4-trifluoromethyl-phenyl)-[1,3,4]oxadiazol-2-ylmethyl]-propyl ester] | 0.407 nM
7 | CCCC[C@H](NC(=O)O[C@@H](Cc1nnc(-c2ccccc2)o1)C(C)(C)C)C(=O)C(=O)N[C@H](C)c1ccccc1 [[(S)-1-(1-Phenyl-ethylaminooxalyl)-pentyl]-carbamic acid (S)-2,2-dimethyl-1-(5-phenyl-[1,3,4]oxadiazol-2-ylmethyl)-propyl ester] | 457 nM
8 | CCCC[C@H](NC(=O)O[C@H](Cc1nnc(-c2ccc(C(F)(F)F)cc2)o1)C(C)(C)C)C(=O)C(=O)Nc1ccn[nH]1 [[(S)-1-(2H-Pyrazol-3-ylaminooxalyl)-pentyl]-carbamic acid (R)-2,2-dimethyl-1-[5-(4-trifluoromethyl-phenyl)-[1,3,4]oxadiazol-2-ylmethyl]-propyl ester] | 0.0288 nM
9 | CCCC[C@H](NC(=O)O[C@H](Cn1cnc(-c2ccc(C(F)(F)F)cc2)c1)C(C)(C)C)C(=O)C(=O)Nc1nccs1 [[(S)-1-(Thiazol-2-ylaminooxalyl)-pentyl]-carbamic acid (S)-2,2-dimethyl-1-[4-(4-trifluoromethyl-phenyl)-imidazol-1-ylmethyl]-propyl ester] | 5.75 nM
